From the kinase profiling compilation of Christmann-Franck et al. (2016)

How the values were obtained:
Assay in all cases: radiometric filter-binding kinase assay, Kinase HotSpot
Conditions in all cases: compound 0.5 µM; ATP 10 µM
[1] = target: MAP3K2 (human) (UniProt Q9Y2U5)
[2] = target: RPS6KB1 (human) (UniProt P23443)
[3] = target: TAOK3 (human) (UniProt Q9H2K8)
[4] = target: MAP3K11 (human) (UniProt Q16584)
[5] = target: FGFR4 (human) (UniProt P22455)
[6] = target: NTRK1 (human) (UniProt P04629)
[7] = target: WEE1 (human) (UniProt P30291)
[8] = target: NEK1 (human) (UniProt Q96PY6)
[9] = target: TEK (human) (UniProt Q02763)
[10] = target: CSNK1E (human) (UniProt P49674)
[11] = target: CDK5 CDK5R1 p35 (human) (UniProt Q00535+Q15078)
[12] = target: CDK9 CCNT1 (human) (UniProt P50750+O60563)
[13] = target: PNCK (human) (UniProt Q6P2M8)
[14] = target: SGK2 (human) (UniProt Q9HBY8)
Sequence of SGK2 (human) (Q9HBY8 whole entry, looked up): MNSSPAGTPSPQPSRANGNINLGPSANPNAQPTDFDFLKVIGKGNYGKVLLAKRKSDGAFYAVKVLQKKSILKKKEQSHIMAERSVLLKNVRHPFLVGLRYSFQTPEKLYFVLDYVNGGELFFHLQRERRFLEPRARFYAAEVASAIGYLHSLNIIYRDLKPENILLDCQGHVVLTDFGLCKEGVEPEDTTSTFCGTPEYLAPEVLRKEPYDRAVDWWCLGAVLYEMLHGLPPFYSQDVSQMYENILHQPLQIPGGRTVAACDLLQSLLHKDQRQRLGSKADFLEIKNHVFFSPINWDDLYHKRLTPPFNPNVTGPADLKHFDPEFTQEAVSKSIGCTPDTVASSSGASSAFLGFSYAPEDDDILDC

[15] = target: SYK (human) (UniProt P43405)
[16] = target: CLK1 (human) (UniProt P49759)
Sequence of CLK1 (human) (P49759 whole entry, looked up): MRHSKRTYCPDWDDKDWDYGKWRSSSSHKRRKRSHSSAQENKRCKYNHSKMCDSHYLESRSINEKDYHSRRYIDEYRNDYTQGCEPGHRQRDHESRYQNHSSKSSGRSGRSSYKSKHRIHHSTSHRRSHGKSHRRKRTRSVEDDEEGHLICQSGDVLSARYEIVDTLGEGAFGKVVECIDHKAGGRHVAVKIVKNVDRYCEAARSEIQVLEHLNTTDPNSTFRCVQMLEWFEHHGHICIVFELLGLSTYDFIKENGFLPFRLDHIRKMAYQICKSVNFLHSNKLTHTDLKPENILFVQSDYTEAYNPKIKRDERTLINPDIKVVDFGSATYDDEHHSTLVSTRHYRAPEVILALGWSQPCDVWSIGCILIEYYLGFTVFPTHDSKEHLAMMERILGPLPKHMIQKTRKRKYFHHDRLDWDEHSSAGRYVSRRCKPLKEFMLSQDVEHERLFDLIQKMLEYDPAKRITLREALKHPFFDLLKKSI

[17] = target: HIPK1 (human) (UniProt Q86Z02)
[18] = target: RAF1 (human) (UniProt P04049)
[19] = target: GRK7 (human) (UniProt Q8WTQ7)
[20] = target: PAK2 (human) (UniProt Q13177)
[21] = target: PLK3 (human) (UniProt Q9H4B4)
[22] = target: VRK1 (human) (UniProt Q99986)
[23] = target: SLK (human) (UniProt Q9H2G2)
[24] = target: MAP3K8 (human) (UniProt P41279)
[25] = target: AURKA (human) (UniProt O14965)
Sequence of AURKA (human) (O14965 whole entry, looked up): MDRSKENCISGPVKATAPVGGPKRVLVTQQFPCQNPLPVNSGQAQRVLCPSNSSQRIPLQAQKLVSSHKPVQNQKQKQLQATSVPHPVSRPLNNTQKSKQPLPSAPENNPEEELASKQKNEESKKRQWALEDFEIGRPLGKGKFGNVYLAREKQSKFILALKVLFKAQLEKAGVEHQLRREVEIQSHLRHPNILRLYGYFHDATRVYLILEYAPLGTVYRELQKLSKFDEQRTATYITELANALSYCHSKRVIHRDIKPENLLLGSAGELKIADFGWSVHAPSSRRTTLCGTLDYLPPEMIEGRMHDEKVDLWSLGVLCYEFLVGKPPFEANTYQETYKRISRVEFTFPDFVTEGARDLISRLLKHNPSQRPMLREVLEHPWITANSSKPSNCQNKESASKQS

[26] = target: AURKC (human) (UniProt Q9UQB9)
[27] = target: STK4 (human) (UniProt Q13043)
Sequence of STK4 (human) (Q13043 whole entry, looked up): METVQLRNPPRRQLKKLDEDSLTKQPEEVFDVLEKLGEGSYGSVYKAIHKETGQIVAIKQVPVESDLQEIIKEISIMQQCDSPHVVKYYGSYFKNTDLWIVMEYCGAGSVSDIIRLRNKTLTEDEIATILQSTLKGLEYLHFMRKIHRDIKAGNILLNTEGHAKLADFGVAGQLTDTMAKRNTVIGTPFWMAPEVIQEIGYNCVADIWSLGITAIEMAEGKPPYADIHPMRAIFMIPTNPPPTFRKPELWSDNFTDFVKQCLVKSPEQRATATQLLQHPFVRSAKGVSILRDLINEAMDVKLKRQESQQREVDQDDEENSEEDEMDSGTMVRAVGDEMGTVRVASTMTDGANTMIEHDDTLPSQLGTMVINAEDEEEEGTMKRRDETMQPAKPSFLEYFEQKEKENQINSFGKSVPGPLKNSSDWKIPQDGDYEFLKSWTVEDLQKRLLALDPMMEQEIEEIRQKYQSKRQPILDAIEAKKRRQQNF

[28] = target: CDK9 CCNK (human) (UniProt O75909+P50750)
[29] = target: MAP4K5 (human) (UniProt Q9Y4K4)
[30] = target: PRKCH (human) (UniProt P24723)
[31] = target: IRAK4 (human) (UniProt Q9NWZ3)
[32] = target: SGK3 (human) (UniProt Q96BR1)
[33] = target: MAPKAPK2 (human) (UniProt P49137)
[34] = target: FGR (human) (UniProt P09769)
[35] = target: HIPK3 (human) (UniProt Q9H422)
[36] = target: MAP3K3 (human) (UniProt Q99759)
[37] = target: HIPK4 (human) (UniProt Q8NE63)
[38] = target: STK10 (human) (UniProt O94804)
[39] = target: FLT1 (human) (UniProt P17948)
[40] = target: NTRK3 (human) (UniProt Q16288)
Sequence of NTRK3 (human) (Q16288 whole entry, looked up): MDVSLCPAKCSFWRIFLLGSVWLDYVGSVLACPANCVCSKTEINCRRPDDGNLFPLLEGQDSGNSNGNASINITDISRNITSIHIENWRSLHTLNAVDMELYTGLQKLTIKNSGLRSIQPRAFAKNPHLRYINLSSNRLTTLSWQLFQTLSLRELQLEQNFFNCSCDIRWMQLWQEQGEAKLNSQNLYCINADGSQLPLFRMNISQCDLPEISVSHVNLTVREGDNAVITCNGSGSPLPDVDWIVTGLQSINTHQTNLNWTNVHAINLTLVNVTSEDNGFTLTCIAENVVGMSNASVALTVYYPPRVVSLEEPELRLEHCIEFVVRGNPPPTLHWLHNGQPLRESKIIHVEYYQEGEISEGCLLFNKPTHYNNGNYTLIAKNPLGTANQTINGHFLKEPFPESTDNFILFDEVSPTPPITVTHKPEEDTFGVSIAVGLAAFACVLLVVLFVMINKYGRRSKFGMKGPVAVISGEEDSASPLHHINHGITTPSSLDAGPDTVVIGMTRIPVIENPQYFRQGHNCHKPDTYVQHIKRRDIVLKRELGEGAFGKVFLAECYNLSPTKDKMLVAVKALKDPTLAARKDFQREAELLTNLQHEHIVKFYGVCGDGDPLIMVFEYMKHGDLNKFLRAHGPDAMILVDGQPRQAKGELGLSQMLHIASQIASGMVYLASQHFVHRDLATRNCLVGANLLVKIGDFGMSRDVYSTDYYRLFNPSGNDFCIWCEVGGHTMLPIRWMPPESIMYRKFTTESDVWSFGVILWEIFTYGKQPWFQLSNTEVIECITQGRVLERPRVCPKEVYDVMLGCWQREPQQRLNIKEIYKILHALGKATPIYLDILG

[41] = target: CAMK1D (human) (UniProt Q8IU85)
[42] = target: TNK2 (human) (UniProt Q07912)

Sequence of MAP3K2 (human) (Q9Y2U5 whole entry, looked up): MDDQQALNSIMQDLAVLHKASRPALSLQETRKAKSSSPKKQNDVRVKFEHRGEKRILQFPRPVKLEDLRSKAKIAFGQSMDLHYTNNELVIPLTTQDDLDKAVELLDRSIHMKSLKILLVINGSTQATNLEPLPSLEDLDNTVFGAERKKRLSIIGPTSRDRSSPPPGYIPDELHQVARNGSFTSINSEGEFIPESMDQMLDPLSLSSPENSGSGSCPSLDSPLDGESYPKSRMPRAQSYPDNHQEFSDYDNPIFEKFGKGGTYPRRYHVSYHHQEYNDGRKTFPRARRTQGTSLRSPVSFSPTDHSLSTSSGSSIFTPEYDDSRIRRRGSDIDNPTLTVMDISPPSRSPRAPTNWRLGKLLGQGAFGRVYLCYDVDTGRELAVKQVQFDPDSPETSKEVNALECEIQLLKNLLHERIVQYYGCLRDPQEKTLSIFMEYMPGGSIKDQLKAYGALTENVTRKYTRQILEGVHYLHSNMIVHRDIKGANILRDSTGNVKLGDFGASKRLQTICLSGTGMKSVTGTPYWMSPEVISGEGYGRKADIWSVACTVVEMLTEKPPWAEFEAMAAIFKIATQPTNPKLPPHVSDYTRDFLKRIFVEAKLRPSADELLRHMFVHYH
Sequence of FGFR4 (human) (P22455 whole entry, looked up): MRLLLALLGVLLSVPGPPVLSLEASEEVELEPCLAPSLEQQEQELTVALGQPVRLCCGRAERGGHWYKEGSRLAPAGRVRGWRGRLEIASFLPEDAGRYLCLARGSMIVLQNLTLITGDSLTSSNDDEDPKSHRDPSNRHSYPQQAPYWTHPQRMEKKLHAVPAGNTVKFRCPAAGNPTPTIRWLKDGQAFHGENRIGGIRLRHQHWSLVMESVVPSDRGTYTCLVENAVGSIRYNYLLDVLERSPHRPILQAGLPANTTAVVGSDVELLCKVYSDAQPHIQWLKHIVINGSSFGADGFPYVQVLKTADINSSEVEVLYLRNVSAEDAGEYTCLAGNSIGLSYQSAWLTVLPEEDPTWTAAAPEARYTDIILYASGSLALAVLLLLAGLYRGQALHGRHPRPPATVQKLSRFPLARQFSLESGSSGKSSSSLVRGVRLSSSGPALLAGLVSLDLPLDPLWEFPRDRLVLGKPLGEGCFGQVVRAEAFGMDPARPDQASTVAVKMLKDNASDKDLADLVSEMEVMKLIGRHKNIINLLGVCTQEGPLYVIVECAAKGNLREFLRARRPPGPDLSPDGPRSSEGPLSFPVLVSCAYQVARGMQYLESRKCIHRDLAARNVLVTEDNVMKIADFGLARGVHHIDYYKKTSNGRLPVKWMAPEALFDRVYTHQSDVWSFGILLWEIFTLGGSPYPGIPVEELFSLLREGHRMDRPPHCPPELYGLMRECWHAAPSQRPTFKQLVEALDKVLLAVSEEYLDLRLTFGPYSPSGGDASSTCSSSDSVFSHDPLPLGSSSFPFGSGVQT
Sequence of MAP3K11 (human) (Q16584 whole entry, looked up): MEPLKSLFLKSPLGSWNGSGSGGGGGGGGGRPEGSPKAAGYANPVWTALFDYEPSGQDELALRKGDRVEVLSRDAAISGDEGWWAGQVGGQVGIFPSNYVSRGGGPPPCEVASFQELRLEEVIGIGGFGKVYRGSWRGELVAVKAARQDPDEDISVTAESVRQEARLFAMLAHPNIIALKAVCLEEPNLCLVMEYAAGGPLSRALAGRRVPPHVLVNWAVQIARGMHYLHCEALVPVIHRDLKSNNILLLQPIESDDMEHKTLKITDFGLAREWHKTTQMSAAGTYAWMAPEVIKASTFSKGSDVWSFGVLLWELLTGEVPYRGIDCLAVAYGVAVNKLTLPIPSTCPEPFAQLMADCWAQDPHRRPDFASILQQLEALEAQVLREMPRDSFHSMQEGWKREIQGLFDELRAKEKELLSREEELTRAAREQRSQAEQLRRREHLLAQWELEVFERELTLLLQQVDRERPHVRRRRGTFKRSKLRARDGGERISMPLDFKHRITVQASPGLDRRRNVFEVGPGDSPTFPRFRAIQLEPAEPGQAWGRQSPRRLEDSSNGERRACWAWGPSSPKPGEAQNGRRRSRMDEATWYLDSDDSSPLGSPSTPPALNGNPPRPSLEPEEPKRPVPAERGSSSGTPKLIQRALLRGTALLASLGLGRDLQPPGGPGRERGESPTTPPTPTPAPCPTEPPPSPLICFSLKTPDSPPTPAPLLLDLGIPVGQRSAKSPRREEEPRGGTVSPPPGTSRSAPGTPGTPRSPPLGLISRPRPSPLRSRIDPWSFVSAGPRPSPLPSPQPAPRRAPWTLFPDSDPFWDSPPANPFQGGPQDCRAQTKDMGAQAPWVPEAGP

Structure (SMILES)	residual activity [1]	residual activity [2]	residual activity [3]	residual activity [4]	residual activity [5]	residual activity [6]	residual activity [7]	residual activity [8]	residual activity [9]	residual activity [10]	residual activity [11]	residual activity [12]	residual activity [13]	residual activity [14]	residual activity [15]	residual activity [16]	residual activity [17]	residual activity [18]	residual activity [19]	residual activity [20]	further results
O=C1Nc2cc(Br)ccc2/C1=C1/Nc2ccccc2/C1=N\O	90.3%	79.6%	56.9%	16%	79.6%	34.5%	96%	93.8%	96.7%	83.7%	12.4%	68.2%	105%	73%	45.7%	93.1%	103%	103%	96.7%	90.9%	residual activity [21]: 95.3%; residual activity [22]: 98%; residual activity [23]: 56.1%; residual activity [24]: 101%; residual activity [25]: 17.1%; residual activity [26]: 51.8%; residual activity [27]: 22.5%; residual activity [28]: 37.5%; residual activity [29]: 36.5%; residual activity [30]: 78.6%; residual activity [31]: 90.1%; residual activity [32]: 97.2%; residual activity [33]: 86.9%; residual activity [34]: 2.99%; residual activity [35]: 64.8%; residual activity [36]: 107%; residual activity [37]: 106%; residual activity [38]: 52.8%; residual activity [39]: 75.1%; residual activity [40]: 4.98%
CS(=O)c1ccc(-c2nc(-c3ccc(F)cc3)c(-c3ccncc3)[nH]2)cc1 (centres undefined)	95.3%	97.4%	103%	96.4%	73.8%	100%	92.1%	94.7%	94.5%	31%	97.3%	83.8%	102%	106%	98%	101%	104%	41.1%	107%	78%	residual activity [41]: 105%; residual activity [42]: 82.1%; residual activity [21]: 97.3%; residual activity [23]: 94.1%; residual activity [24]: 92.1%; residual activity [25]: 99.5%; residual activity [26]: 98.5%; residual activity [27]: 101%; residual activity [28]: 98.6%; residual activity [29]: 99.5%; residual activity [31]: 130%; residual activity [32]: 101%; residual activity [34]: 92.7%; residual activity [35]: 103%; residual activity [36]: 102%; residual activity [37]: 93.5%; residual activity [38]: 89.1%; residual activity [39]: 95.2%; residual activity [40]: 98%
O=C1Cc2c([nH]c3ccc([N+](=O)[O-])cc23)-c2ccccc2N1	78%	103%	76.7%	11.8%	90.6%	107%	98.2%	105%	92.1%	95.9%	7.98%	22.6%	107%	111%	53.9%	111%	98.5%	114%	99%	41%	residual activity [42]: 74.9%; residual activity [21]: 98.8%; residual activity [22]: 90.8%; residual activity [23]: 96.2%; residual activity [24]: 99%; residual activity [25]: 96%; residual activity [27]: 52.3%; residual activity [28]: 24.2%; residual activity [29]: 15.9%; residual activity [30]: 96.9%; residual activity [31]: 167%; residual activity [32]: 102%; residual activity [33]: 77.4%; residual activity [34]: 50.3%; residual activity [35]: 96.6%; residual activity [36]: 100%; residual activity [37]: 103%; residual activity [38]: 80.4%; residual activity [39]: 98.2%; residual activity [40]: 63.4%
